The source of these data is ChEMBL document CHEMBL4373717, “Coumarin-containing hybrids and their anticancer activities” (Eur J Med Chem, 2019).

≈ marks a conversion by molar mass, not a printed value. Some results are limits rather than exact numbers.

Common to all, as to assay type: functional, cell-based
Experiment [1] relates to MCF7. The experiment can be described thus: Cytotoxicity against human MCF7 cells assessed as reduction in cell viability after 48 hrs by MTT assay. Particulars: MCF7, 48 h.
Experiment [2] relates to A549. The experiment can be described thus: Anticancer activity against human A549 cells by MTT assay. On the technique in general: Tetrazolium assays rely on reduction of a dye to a coloured formazan, in cell work by metabolically active cells.
For another experiment, the system named is MDA-MB-231. The experiment can be described thus: Anticancer activity against human MDA-MB-231 cells by MTT assay.
Experiment [3] concerns HeLa. The experiment can be described thus: Anticancer activity against human HeLa cells by MTT assay.
The next experiment has as its system K562. The experiment is described as follows: Anticancer activity against human K562 cells by MTT assay.
In experiment [4] the test system is MCF7. The experiment is described as follows: Cytotoxicity against human MCF7 cells assessed as reduction in cell viability by SRB assay.
Experiment [5] can be described thus: Cytotoxicity against human MCF7/DX cells assessed as reduction in cell viability by SRB assay. Background: In SRB staining, fixed cells bind dye roughly in proportion to their protein.
A further experiment concerns DU-145. The experiment is described as follows: Cytotoxicity against human DU145 cells assessed as reduction in cell viability by SRB assay.
The test system of another experiment is SK-OV-3. The experiment can be described thus: Cytotoxicity against human SKOV3 cells assessed as reduction in cell viability by SRB assay.
The subject of experiment [6] is A549. The experiment is described as follows: Cytotoxicity against human A549 cells assessed as reduction in cell viability by SRB assay.
A further experiment relates to HepG2. The experiment is described as follows: Cytotoxicity against human HepG2 cells assessed as reduction in cell viability by SRB assay.
Experiment [7] deals with HeLa. The experiment can be described thus: Cytotoxicity against human HeLa cells assessed as reduction in cell viability by SRB assay.

In general, IC50 refers to the concentration that gives 50% inhibition. Consider `O=Cc1c(-c2cc3cc(Br)ccc3oc2=O)[nH]c2ccccc12`, for which the IC50 in the experiment with MCF7 [1] was 5.5 to 100 µM.

In the case of `Cc1nn(-c2ccccc2)c(=O)n1-n1c(-c2cc3ccccc3oc2=O)cs/c1=N\c1ccc(Cl)cc1`, the IC50 in the experiment with A549 [2], with MDA-MB-231, in the experiment on HeLa [3] and with K562 was 0.16 to 1.12 mg/L (≈ 0.303 to 2.12 µM) throughout.

Regarding `Cc1cc(=O)oc2cc(OCCOCCN3C(=O)C(=O)c4ccccc43)ccc12`, the IC50 (in the experiment with MCF7 [4]; in experiment [5]; in the experiment on DU-145; in the experiment with SK-OV-3; with A549 [6]; with HepG2) was 10.3 to 50 µM throughout. In the experiment with HeLa [7], the IC50 is 10.3 to 50 µM.

In the case of `Cc1ccc2c(c1)C(=O)C(=O)N2CCOCCOc1ccc2c(C)cc(=O)oc2c1`, the IC50 (in the experiment with MCF7 [4]; in experiment [5]; in the experiment with DU-145; in the experiment on SK-OV-3; in the experiment on A549 [6]; in the experiment on HepG2) was 10.3 to 50 µM throughout. Besides, in the experiment on HeLa [7], the IC50 is 10.3 to 50 µM.

On to `Cc1cc(=O)oc2cc(OCCOCCN3C(=O)/C(=N\O)c4cc(F)ccc43)ccc12`, for which the IC50 (with MCF7 [4]; in experiment [5]; in the experiment with DU-145; in the experiment on SK-OV-3; in the experiment on A549 [6]; with HepG2) was 10.3 to 50 µM throughout. Moreover, the IC50 in the experiment on HeLa [7] fell in the range of 10.3 to 50 µM.

In the case of `Cc1nn(-c2ccccc2)c(=O)n1-n1c(-c2cc3ccccc3oc2=O)cs/c1=N\c1ccccc1`, the IC50 with A549 [2], in the experiment on MDA-MB-231, in the experiment with HeLa [3] and with K562 was 0.16 to 1.12 mg/L (≈ 0.324 to 2.27 µM) throughout.

Consider `COc1ccc(/N=c2\scc(-c3cc4ccccc4oc3=O)n2-n2c(C)nn(-c3ccccc3)c2=O)cc1`, for which the IC50 in the experiment with A549 [2], in the experiment on MDA-MB-231, in the experiment with HeLa [3] and with K562 was 0.16 to 1.12 mg/L (≈ 0.306 to 2.14 µM) in each case.

Consider `Cc1cc(=O)oc2cc(OCCOCCN3C(=O)/C(=N\O)c4cc(Cl)ccc43)ccc12`, for which the IC50 (in the experiment with MCF7 [4]; in experiment [5]; with DU-145; in the experiment with SK-OV-3; in the experiment with A549 [6]; in the experiment on HepG2) was 10.3 to 50 µM throughout. Moreover, the IC50 in the experiment on HeLa [7] is 10.3 to 50 µM.

For `COc1ccc(/N=c2\scc(-c3cc4ccccc4oc3=O)n2-n2c(C)nn(-c3ccc(OC)cc3)c2=O)cc1`, the IC50 in the experiment with A549 [2], with MDA-MB-231, in the experiment with HeLa [3] and in the experiment on K562 was 0.16 to 1.12 mg/L (≈ 0.289 to 2.02 µM) in each case.

As for `O=C(O)c1c(-c2cc3cc(Cl)ccc3oc2=O)[nH]c2ccccc12`, in the experiment with MCF7 [1], the IC50 was 5.5 to 100 µM.

For `COc1ccc(/N=c2\scc(-c3cc4ccccc4oc3=O)n2-n2c(C)nn(-c3ccc(C)cc3)c2=O)cc1`, the IC50 in the experiment on A549 [2], in the experiment on MDA-MB-231, in the experiment with HeLa [3] and in the experiment on K562 was 0.16 to 1.12 mg/L (≈ 0.298 to 2.08 µM) throughout.

For the molecule `COc1ccc(-c2csc(-n3nc(C)cc3-c3cc4ccccc4oc3=O)n2)cc1`, in the experiment with MCF7 [1], the IC50 was in the range of 4.03 to 31.5 µM.

Take `COc1ccc(/N=c2\scc(-c3cc4ccccc4oc3=O)n2-n2c(C)nn(-c3ccc(Br)cc3)c2=O)cc1`: the IC50 with A549 [2], with MDA-MB-231, with HeLa [3] and in the experiment on K562 was 0.16 to 1.12 mg/L (≈ 0.266 to 1.86 µM) in each case.

In the case of `COc1ccc(-n2nc(C)n(-n3c(-c4cc5ccccc5oc4=O)cs/c3=N\c3ccccc3)c2=O)cc1`, the IC50 in the experiment on A549 [2], in the experiment on MDA-MB-231, in the experiment on HeLa [3] and in the experiment with K562 was 0.16 to 1.12 mg/L (≈ 0.306 to 2.14 µM) in each case.

In the case of `CO/N=C1\C(=O)N(CCOCCOc2ccc3c(C)cc(=O)oc3c2)c2ccc(F)cc21`, the IC50 (in the experiment on MCF7 [4]; in experiment [5]; with DU-145; in the experiment on SK-OV-3; with A549 [6]; with HepG2) was 10.3 to 50 µM each time. For the same molecule, the IC50 in the experiment with HeLa [7] fell in the range of 10.3 to 50 µM.

As to `Cc1ccc(-n2nc(C)n(-n3c(-c4cc5ccccc5oc4=O)cs/c3=N\c3ccccc3)c2=O)cc1`, the IC50 with A549 [2], with MDA-MB-231, with HeLa [3] and in the experiment on K562 was 0.16 to 1.12 mg/L (≈ 0.315 to 2.21 µM) throughout.

Regarding `Cc1cc(=O)oc2cc(OCCOCCN3C(=O)/C(=N\O)c4ccccc43)ccc12`, the IC50 (in the experiment on MCF7 [4]; in [5]; in the experiment with DU-145; in the experiment on SK-OV-3; with A549 [6]; in the experiment with HepG2) was 10.3 to 50 µM in each case. The IC50 with HeLa [7] fell in the range of 10.3 to 50 µM.

`Cc1nn(-c2ccc(Br)cc2)c(=O)n1-n1c(-c2cc3ccccc3oc2=O)cs/c1=N\c1ccccc1`: the IC50 with A549 [2], in the experiment on MDA-MB-231, with HeLa [3] and in the experiment on K562 was 0.16 to 1.12 mg/L (≈ 0.28 to 1.96 µM) in each case.

For the molecule `Cc1cc(=O)oc2cc(OCCOCCN3C(=O)C(=O)c4cc(F)ccc43)ccc12`, the IC50 (with MCF7 [4]; in experiment [5]; with DU-145; with SK-OV-3; in the experiment on A549 [6]; in the experiment on HepG2) was 10.3 to 50 µM in each case. In addition, in the experiment on HeLa [7], the IC50 lay within 10.3 to 50 µM.

Turning to `COc1ccc(-c2csc(-n3nc(C)cc3-c3cc4cc(Br)ccc4oc3=O)n2)cc1`, in the experiment on MCF7 [1], the IC50 lay in the range of 4.03 to 31.5 µM.

As to `CO/N=C1\C(=O)N(CCOCCOc2ccc3c(C)cc(=O)oc3c2)c2ccccc21`, the IC50 (in the experiment on MCF7 [4]; in experiment [5]; in the experiment with DU-145; in the experiment with SK-OV-3; in the experiment with A549 [6]; with HepG2) was 10.3 to 50 µM throughout. For the same molecule, the IC50 with HeLa [7] is 10.3 to 50 µM.

In the case of `CO/N=C1\C(=O)N(CCOCCOc2ccc3c(C)cc(=O)oc3c2)c2ccc(C)cc21`, the IC50 (with MCF7 [4]; in [5]; in the experiment on DU-145; in the experiment with SK-OV-3; in the experiment with A549 [6]; in the experiment on HepG2) was 10.3 to 50 µM throughout. Further, the IC50 in the experiment on HeLa [7] lay within 10.3 to 50 µM.

As for `Cc1nn(-c2ccc(Br)cc2)c(=O)n1-n1c(-c2cc3ccccc3oc2=O)cs/c1=N\c1ccc(Cl)cc1`, the IC50 with A549 [2], in the experiment with MDA-MB-231, with HeLa [3] and in the experiment on K562 was 0.16 to 1.12 mg/L (≈ 0.264 to 1.85 µM) in each case.

On to `Cc1ccc2c(c1)/C(=N/O)C(=O)N2CCOCCOc1ccc2c(C)cc(=O)oc2c1`, for which the IC50 (in the experiment with MCF7 [4]; in experiment [5]; with DU-145; in the experiment with SK-OV-3; with A549 [6]; in the experiment on HepG2) was 10.3 to 50 µM throughout. For the same molecule, the IC50 in the experiment on HeLa [7] was in the range of 10.3 to 50 µM.

For the molecule `Cc1cc(=O)oc2cc(OCCOCCN3C(=O)C(=O)c4cc(Cl)ccc43)ccc12`, the IC50 (in the experiment on MCF7 [4]; in experiment [5]; in the experiment on DU-145; with SK-OV-3; in the experiment with A549 [6]; in the experiment on HepG2) was 10.3 to 50 µM throughout. Besides, the IC50 in the experiment with HeLa [7] lay in the range of 10.3 to 50 µM.

On to `Cc1ccc(-n2nc(C)n(-n3c(-c4cc5ccccc5oc4=O)cs/c3=N\c3ccc(Cl)cc3)c2=O)cc1`, for which the concentration for half-maximal inhibition (IC50) with A549 [2], in the experiment on MDA-MB-231, in the experiment with HeLa [3] and in the experiment on K562 was 0.16 to 1.12 mg/L (≈ 0.295 to 2.07 µM) each time.

In the case of `COc1cc([C@@H]2c3cc4c(cc3[C@@H](O[C@@H]3O[C@@H]5CO[C@@H](C)O[C@H]5[C@H](O)[C@H]3O)[C@H]3COC(=O)[C@H]23)OCO4)cc(OC)c1O` [ETOPOSIDE], the IC50 (in [5]; in the experiment with A549 [6]; with HeLa [7]) was above 50 µM throughout.
